BindingDB's records for doi:10.1016/j.bmcl.2019.04.027 (Gilead Sciences, 2019)

Legend:
[1] = Inhibition of NS5A in HCV genotype 1a H77 infected in human HuH7 replicon cells assessed as reduction in viral replication after 3 days by luciferase reporter gene assay
[2] = Inhibition of NS5A in HCV genotype 1b Con1 infected in human HuH7 replicon cells assessed as reduction in viral replication after 3 days by luciferase reporter gene assay
[3] = Inhibition of NS5A in HCV genotype 2a JFH1 infected in human HuH7 replicon cells assessed as reduction in viral replication after 3 days by luciferase reporter gene assay
[4] = Inhibition of NS5A in HCV genotype 4a ED43 infected in human HuH7 replicon cells assessed as reduction in viral replication after 3 days by luciferase reporter gene assay
[5] = Inhibition of NS5A in HCV genotype 2b MD2b-1 infected in human HuH7 replicon cells assessed as reduction in viral replication after 3 days by luciferase reporter gene assay
[6] = Inhibition of NS5A L31M mutant in HCV genotype 2a J6 (M31) infected in human HuH7 replicon cells assessed as reduction in viral replication after 3 days by luciferase reporter gene assay
[7] = Inhibition of NS5A in HCV genotype 3a S52 infected in human HuH7 transient chimeric replicon cells assessed as reduction in viral replication after 3 days by luciferase reporter gene assay
[8] = Inhibition of NS5A in wild type HCV genotype 1a infected in human HuH7 replicon cells assessed as reduction in viral replication after 3 days by luciferase reporter gene assay
[9] = Inhibition of NS5A in wild type HCV genotype 1b infected in human HuH7 replicon cells assessed as reduction in viral replication after 3 days by luciferase reporter gene assay
[10] = Inhibition of NS5A Y93H mutant in HCV genotype 1b infected in human HuH7 replicon cells assessed as reduction in viral replication after 3 days by luciferase reporter gene assay
[11] = Inhibition of NS5A Q30R mutant in HCV genotype 1a infected in human HuH7 replicon cells assessed as reduction in viral replication after 3 days by luciferase reporter gene assay
[12] = Inhibition of NS5A Q30E mutant in HCV genotype 1a infected in human HuH7 replicon cells assessed as reduction in viral replication after 3 days by luciferase reporter gene assay
[13] = Inhibition of NS5A M28T mutant in HCV genotype 1a infected in human HuH7 replicon cells assessed as reduction in viral replication after 3 days by luciferase reporter gene assay
[14] = Inhibition of NS5A Q30H mutant in HCV genotype 1a infected in human HuH7 replicon cells assessed as reduction in viral replication after 3 days by luciferase reporter gene assay
[15] = Inhibition of NS5A L31M mutant in HCV genotype 1a infected in human HuH7 replicon cells assessed as reduction in viral replication after 3 days by luciferase reporter gene assay
[16] = Inhibition of NS5A Y93C mutant in HCV genotype 1a infected in human HuH7 replicon cells assessed as reduction in viral replication after 3 days by luciferase reporter gene assay
[17] = Inhibition of NS5A Y93H mutant in HCV genotype 1a infected in human HuH7 replicon cells assessed as reduction in viral replication after 3 days by luciferase reporter gene assay
[18] = Inhibition of NS5A L31M mutant in HCV genotype 2a JFH1 (M31) infected in human HuH7 replicon cells assessed as reduction in viral replication after 3 days by luciferase reporter gene assay
[19] = Inhibition of NS5A in HCV genotype 4a ED43 infected in human HuH7 transient chimeric replicon cells assessed as reduction in viral replication after 3 days by luciferase reporter gene assay
[20] = Inhibition of NS5A in HCV genotype 6a HK6 infected in human HuH7 replicon cells assessed as reduction in viral replication after 3 days by luciferase reporter gene assay
[21] = Inhibition of NS5A in HCV genotype 6e D88 infected in human HuH7 replicon cells assessed as reduction in viral replication after 3 days by luciferase reporter gene assay
[22] = Inhibition of NS5A in HCV genotype 5a SA13 infected in human HuH7 replicon cells assessed as reduction in viral replication after 3 days by luciferase reporter gene assay
[23] = Inhibition of NS5A in HCV genotype 2a JFH1 (L31) infected in human HuH7 replicon cells assessed as reduction in viral replication after 3 days by luciferase reporter gene assay
[24] = Inhibition of NS5A L31M mutant in HCV genotype 2a JFH1 infected in human HuH7 replicon cells assessed as reduction in viral replication after 3 days by luciferase reporter gene assay
[25] = Inhibition of NS5A L31M mutant in patient derived HCV genotype 2b MD2b-1 infected in human HuH7 replicon cells assessed as reduction in viral replication after 3 days by luciferase reporter gene assay
[26] = Inhibition of NS5A in HCV genotype 2a J6 infected in human HuH7 replicon cells assessed as reduction in viral replication after 3 days by luciferase reporter gene assay
[27] = Inhibition of NS5A in HCV genotype 3a S52 infected in human HuH7 replicon cells assessed as reduction in viral replication after 3 days by luciferase reporter gene assay

Compound | EC50 [1] [nM] | EC50 [2] [nM] | EC50 [4] [nM] | EC50 [5] [nM] | EC50 [6] [nM] | EC50 [7] [nM] | EC50 [18] [nM] | EC50 [19] [nM] | other results
COC[C@H]1C[C@@H](c2ncc(-c3ccc4c(c3)COc3cc5c(ccc6nc([C@@H]7C[C@H](C)CN7C(=O)[C@@H](NC(=O)OC)C(C)C)[nH]c65)cc3-4)[nH]2)N(C(=O)[C@H](NC(=O)OC)c2ccccc2)C1 | 0.013 | 0.017 | 0.011 | 0.015 | 0.014 | 0.025 |  |  | EC50 [3]: 0.006 nM
COC[C@H]1C[C@@H](c2nc3ccc4cc5c(cc4c3[nH]2)OCc2cc(-c3cnc([C@@H]4CCCN4C(=O)[C@@H](NC(=O)OC)C(C)C)[nH]3)ccc2-5)N(C(=O)[C@@H](NC(=O)OC)C(C)C)C1 | 0.021 | 0.026 |  | 0.135 | 0.28 | 0.024 | 0.008 | 0.014 | EC50 [8]: 0.037 nM; EC50 [9]: 0.026 nM; EC50 [10]: 0.086 nM; EC50 [11]: 0.22 nM; EC50 [12]: 10 nM; EC50 [13]: 0.19 nM; EC50 [14]: 0.15 nM; EC50 [15]: 0.37 nM; EC50 [16]: 0.22 nM; EC50 [17]: 4.7 nM
COC(=O)N[C@H](C(=O)N1CCC[C@H]1c1ncc(-c2cc3c4c(c2)OCc2cc(-c5cnc([C@@H]6CCCN6C(=O)[C@@H](NC(=O)OC)C(C)C)[nH]5)cc(c2-4)OC3)[nH]1)C(C)C | 0.029 | 0.022 |  |  | 8.81 | 0.055 |  | 0.029 | EC50 [20]: 0.016 nM; EC50 [21]: 1.16 nM; EC50 [22]: 0.056 nM; EC50 [23]: 0.007 nM; EC50 [24]: 5.9 nM; EC50 [25]: 1.77 nM
COC[C@H]1C[C@@H](c2ncc(-c3ccc4c(c3)COc3cc5c(ccc6nc([C@@H]7CCCN7C(=O)[C@@H](NC(=O)OC)C(C)C)[nH]c65)cc3-4)[nH]2)N(C(=O)[C@H](NC(=O)OC)c2ccccc2)C1 | 0.011 | 0.019 | 0.007 | 0.009 | 0.013 | 0.017 |  |  | EC50 [3]: 0.006 nM
COC[C@H]1C[C@@H](c2ncc(-c3ccc4c(c3)COc3cc5c(ccc6nc([C@@H]7C[C@H]8C[C@@H]8N7C(=O)[C@@H](NC(=O)OC)C(C)C)[nH]c65)cc3-4)[nH]2)N(C(=O)[C@H](NC(=O)OC)c2ccccc2)C1 | 0.01 | 0.011 | 0.009 | 0.046 | 0.113 | 0.018 |  |  | EC50 [3]: 0.006 nM
CCO[C@H]1C[C@@H](c2nc3ccc4cc5c(cc4c3[nH]2)OCc2cc(-c3cnc([C@@H]4CCCN4C(=O)[C@@H](NC(=O)OC)C(C)C)[nH]3)ccc2-5)N(C(=O)[C@@H](NC(=O)OC)C(C)C)C1 | 0.015 | 0.018 |  | 0.265 | 0.378 | 0.048 | 0.007 | 0.02 | 
COC[C@H]1C[C@@H](c2ncc(-c3cc4c5c(c3)OCc3cc(-c6cnc([C@@H]7CC[C@H](C)N7C(=O)[C@@H](NC(=O)OC)C(C)C)[nH]6)cc(c3-5)OC4)[nH]2)N(C(=O)[C@H](NC(=O)OC)c2ccccc2)C1 | 0.016 | 0.016 | 0.013 | 0.29 |  | 0.12 |  |  | EC50 [26]: 0.48 nM; EC50 [20]: 0.022 nM; EC50 [21]: 0.11 nM; EC50 [22]: 0.081 nM
COC(=O)N[C@H](C(=O)N1CCC[C@H]1c1ncc(-c2ccc3c(c2)COc2cc4c(ccc5nc([C@@H]6CC[C@H](C)N6C(=O)[C@@H](NC(=O)OC)C(C)C)[nH]c54)cc2-3)[nH]1)C(C)C | 0.011 | 0.018 | 0.02 |  | 0.234 |  | 0.019 |  | EC50 [27]: 0.077 nM
COC[C@H]1C[C@@H](c2ncc(-c3ccc4c(c3)COc3cc5c(ccc6nc([C@@H]7C[C@H](COC)CN7C(=O)[C@@H](NC(=O)OC)C(C)C)[nH]c65)cc3-4)[nH]2)N(C(=O)[C@@H](NC(=O)OC)C(C)C)C1 | 0.024 | 0.034 |  | 0.18 | 0.061 | 0.206 | 0.01 | 0.036 | 
COC(=O)N[C@H](C(=O)N1[C@@H](C)CC[C@H]1c1ncc(-c2ccc3c(c2)COc2cc4c(ccc5nc([C@@H]6CC[C@H](C)N6C(=O)[C@@H](NC(=O)OC)C(C)C)[nH]c54)cc2-3)[nH]1)C(C)C | 0.008 | 0.012 |  | 0.063 | 0.28 | 0.02 | 0.014 | 0.008 | 
COC(=O)N[C@H](C(=O)N1CCC[C@H]1c1ncc(-c2ccc3c(c2)COc2cc4c(ccc5nc([C@@H]6C[C@H](C)CN6C(=O)[C@@H](NC(=O)OC)C(C)C)[nH]c54)cc2-3)[nH]1)C(C)C | 0.011 | 0.018 |  | 0.132 | 0.443 | 0.018 | 0.007 | 0.011 | 
COC[C@H]1C[C@@H](c2nc3ccc4cc5c(cc4c3[nH]2)OCc2cc(-c3cnc([C@@H]4CC[C@H](C)N4C(=O)[C@@H](NC(=O)OC)C(C)C)[nH]3)ccc2-5)N(C(=O)[C@@H](NC(=O)OC)C(C)C)C1 | 0.011 | 0.017 |  | 0.157 | 0.067 | 0.061 | 0.012 | 0.015 | 
COC[C@H]1C[C@@H](c2ncc(-c3ccc4c(c3)COc3cc5c(ccc6nc([C@@H]7C[C@@H]8C[C@H]8N7C(=O)[C@@H](NC(=O)OC)C(C)C)[nH]c65)cc3-4)[nH]2)N(C(=O)[C@H](NC(=O)OC)c2ccccc2)C1 | 0.013 | 0.02 | 0.009 | 0.028 | 0.021 | 0.025 |  |  | EC50 [3]: 0.007 nM
COC[C@H]1C[C@@H](c2nc3ccc4cc5c(cc4c3[nH]2)OCc2cc(-c3cnc([C@@H]4C[C@H](C)CN4C(=O)[C@@H](NC(=O)OC)C(C)C)[nH]3)ccc2-5)N(C(=O)[C@@H](NC(=O)OC)C(C)C)C1 | 0.014 | 0.019 |  | 0.166 | 0.106 | 0.058 | 0.009 | 0.022 | 
